Laboratory results from a melting point compilation (Tetko et al.; mined from patent text by program, amines drawn as free bases though some values may be those of a salt).

Row | melting point [°C] | SMILES
1 | 211 to 217 | COc1ccccc1NC(=O)Nc1nc(Oc2ccc3ccccc3c2)nc(N(CCC(=O)O)Cc2ccc(F)cc2)n1
2 | 148 to 150 | COC(=O)c1cccc(COc2cc(Cl)cnc2N)c1
3 | 226 | CCCNCCCOc1ccc(-c2ccc(C(=O)O)cc2)cc1-c1ccc2c(c1)C(C)(C)CCC2(C)C
4 | 230 to 233 | N#Cc1cccnc1CC1C(=O)C2(COc3cc4c(cc32)OCCO4)c2ccccc21 (centres undefined)
5 | 73 to 76 | COC(=O)C[C@@H]1C(=O)NC[C@H](Cc2cc(F)ccc2OC)C(=O)N1S(=O)(=O)c1ccc(Cl)cc1
6 | 178 to 188 | Cc1nccc(-c2cccc(S(=O)(=O)n3c(CCCC(=O)O)cc4nc(Cl)ccc43)c2)n1
7 | 179 to 181 | O=C(OCc1ccccc1)N1CCC(c2cc3ccccc3c(=O)[nH]2)CC1
8 | 191 to 194 | O=C(NCc1ccc(Cl)cc1)c1cnc2ccc(I)cn2c1=O
9 | 117 to 120 | O=C1c2ccccc2CN1C1CCN(c2ccc(C(OCCCc3ccccc3)c3ccccc3)cc2)CC1 (centres undefined)
10 | 119 | C/C(=C\C(=O)NC1CC1)c1cccc(F)c1
11 | 116 to 117 | Cc1cccc(-c2nc(CCOc3ccc(/C=C/CO)cc3)c(C)o2)c1
12 | 160 to 165 | CC(O)Cn1nc(-c2cnc3[nH]cc(C(=O)NC(C)C(=O)N4CC(C#N)C4)c3n2)c2ccc(Cl)cc21 (centres undefined)
13 | 221 to 225 | CCOC(=O)Cc1c(-c2ccc(Cl)cc2)nn2cccnc12
14 | 179 to 180 | CCCCOc1ccc(-c2ccc([C@@]3(CC(=O)O)CCCCS3(=O)=O)s2)cc1
15 | 265 to 266 | COC(=O)CN1CCc2[nH]c(=O)n3nc(-c4ccccc4F)nc3c2C1
16 | 128 | Cc1ccc(F)cc1NC(=O)CN1CCNC(CO)C1 (centres undefined)
17 | 133 to 135 | COc1ccc(CC(=O)N(Cc2ccc(C)cc2)C2CCN(CC3CCCCC3)CC2)cc1
18 | 155 to 157 | COc1cc2c(cc1OC)N(N)C(=O)C(C(=O)OC(C)(C)C)C2 (centres undefined)
19 | 200 to 202 | COCCN(C)CCc1c(-c2ccc(N)cc2)sc2c1c(=O)n(-c1ccc3c(c1)OCO3)c(=O)n2Cc1c(F)cccc1F
20 | 149 to 152 | CCNc1nc(CC)c(C(=O)c2ccc(Cl)c([N+](=O)[O-])c2)s1

Row | melting point [°C] | SMILES
21 | 167 to 169 | COc1cccc(C2NC(=O)N(C(C)C)c3cc(C)ccc32)c1 (centres undefined)
22 | 204 to 205 | COc1nc(C)nc(OC)c1N1CCCn2c1nc1c(Cl)ccc(C(O)(C3CC3)C3CC3)c12
23 | 136 | CCN(c1cccc(OC)c1)c1nc(=O)c2cccnc2s1
24 | 162 to 164 | Cn1cc(Oc2cc(Cl)ccc2Cl)c(=O)c(-c2cccc(C(F)(F)F)c2)c1
25 | 108 to 110 | O=Cc1c[nH]c2cccc(OCC3CO3)c12 (centres undefined)
26 | 211 to 213 | C[Si](C)(C)c1cccc(NC(=O)c2ccc(C(=O)O)cc2)c1
27 | 190 to 192 | Cc1nn(C)c(Oc2ccc([N+](=O)[O-])cc2[N+](=O)[O-])c1C(=O)c1ccc(Cl)cc1Cl
28 | 110 to 111 | COCCOCC(=O)N1CCC(Oc2cc3ncnc(Nc4cccc(Cl)c4F)c3cc2OC)CC1
29 | 75 to 77 | COc1ccc(Oc2c(Cl)cc([N+](=O)[O-])cc2Cl)cc1C(C)C
30 | 98 to 101 | CCOC(=O)COc1cc(-n2c(=O)cc(C(F)(F)F)n(C)c2=O)c(F)cc1Cl
31 | 157 to 158 | COc1ccccc1NC(=O)Nc1ccc(CC(=O)OC(C)(C)C)cc1C
32 | 154 to 155 | O=C1Nc2cccnc2N(C(=O)NCCN2CCCCC2CCCCN2CCCCC2)c2ccccc21 (centres undefined)
33 | 125 to 126 | COc1ccccc1OCCNCCCc1c[nH]c2ccc(F)cc12
34 | 192 to 194 | CCCc1c(OCCCSc2ccc3c(=O)cc(C(=O)O)[nH]c3c2CCC)ccc(C(C)=O)c1O
35 | 147 to 150 | Cc1ccc(-c2nnc(N3CCC(O)C3)nc2-c2ccc(C)cc2)cc1 (centres undefined)
36 | 184 | CCCOc1ccccc1-c1nc(N)cc(=O)[nH]1
37 | 237 to 238 | COc1cc(OC)c2c(=O)[nH]c(-c3ccc4[nH]c(CCO)cc4c3)nc2c1
38 | 96 | C#CCN1CCCc2ccc(OC(=O)Nc3ccccc3C)cc21
39 | 177 to 178 | O=C(O)C1(NS(=O)(=O)c2ccc3oc4cc(Br)ccc4c3c2)CCCC1

Continued, molecule first:

Row | SMILES | melting point [°C]
40 | CC(C)(C)c1cn(N=Cc2cccnc2)c(=O)[nH]1 | 255 to 256
41 | CC(=O)Nc1noc(C)c1Cl | 121 to 122
42 | N#CC1(O)CCN(c2ncccc2F)CC1 | 76 to 78
43 | CCN1C(=O)C(C)(C)N=C(c2ccccc2Cl)c2cc([N+](=O)[O-])ccc21 | 178
44 | O=S(=O)(NCC(c1ccccc1)c1ccc(O)cc1)c1ccccc1 (centres undefined) | 120 to 124
45 | CC(=O)CC(=O)NC1CC1 | 65 to 66
46 | N#C[C@H]1CC(F)(F)CN1C(=O)CNC1(CO)CCC2(CCOCC2)CC1 | 128
47 | O=C(NCc1ccc(Br)cc1F)OCc1ccccc1 | 82 to 84
48 | CC(=O)SCC(C(=O)N[C@@H](CC(C)C)C(=O)O)C(F)(F)F (some centres undefined) | 150 to 152
49 | Cn1nc2cccc(Cl)c2c1S(N)(=O)=O | 173 to 175
50 | NS(=O)(=O)c1ccc(-c2c(F)c(F)c(F)c(F)c2-c2ccc(F)cc2)cc1 | 202 to 203
51 | CCCc1c(C(=O)N(C)C)c2ccc(C(N)=O)cc2n1Cc1ccccc1Cl | 213 to 214
52 | CC(CC1(c2ccccc2)C=CCC=C1)OS(C)(=O)=O (centres undefined) | 51 to 53
53 | COc1cc2c(cc1Br)CC(C)NN=C2c1ccc([N+](=O)[O-])cc1 (centres undefined) | 172 to 174
54 | Cc1cc(C(=O)CBr)cc(C)c1O | 128 to 131
55 | C#CCn1c(=O)[nH]c(=O)n(-c2cc(N3C(=O)C4=C(CCCC4)C3=O)c(F)cc2Cl)c1=O | 127 to 135
56 | CCSC(=O)OCOC(=O)c1ccco1 | 37.2 to 38.4
57 | O=S1(=O)c2ccccc2Nc2nccnc21 | 316 to 318
58 | O=C(O)c1ccc(NCc2ccc(F)cc2)cn1 | 197 to 200
59 | Oc1c(Cc2ccccc2)cc(Br)c2ccccc12 | 123 to 125
60 | CSc1c(Cl)nc(Cl)nc1SC#N | 143 to 144
61 | CC(C)(C)OC(=O)NC(CC1=CC(=O)NC1=O)C(=O)OC(C)(C)C (centres undefined) | 104 to 105

Row | SMILES | melting point [°C]
62 | Cc1c(C(=O)OC(C)C)sc(C(=O)OC(C)C)c1O | 87 to 89
63 | N#Cc1ccc(Nc2nc(N)nc(Cc3c(Cl)ccc4[nH]ccc34)n2)cc1 | 267 to 268
64 | Cc1ccc(NC(=O)N2C(=O)C3(CCCCC3)NC23CCCCC3)cc1 | 136 to 138
65 | O=C(NCC12CC3CC(CC(C3)C1)C2)c1cccc(F)c1Cl | 149 to 151
66 | CN(C)C=C1Nn2c(nc(-c3ccc([N+](=O)[O-])o3)c2N)S1 | 304
67 | CCN(CC)C(=O)n1cnc(S(=O)(=O)Cc2ccccc2)n1 | 87 to 88
68 | Fc1ccc(N2CCN(CCCN(c3ccccc3)c3ccccc3)CC2)cc1 | 87 to 88
69 | Nc1cc(NS(=O)(=O)CCl)ccc1F | 128 to 129
70 | CSCC(O)C1(Sc2ccccc2)C(=O)N2C1CCOC2(C)C (centres undefined) | 83 to 85
71 | Cc1n[nH]c(C)c1C(=O)Nc1ccccc1 | 244 to 245
72 | N#CSCSc1sccc1[N+](=O)[O-] | 51 to 53
73 | Cn1nc(Sc2ccc(C(=O)O)c(Cl)c2)n(C)c1=O | 222
74 | Cc1ncc([N+](=O)[O-])n1CCN1C(=O)NC2(C1=O)C1CC3CC(C1)CC2C3 (centres undefined) | 276 to 280
75 | CS(=O)(=O)N(Cl)C(=O)c1cc(Oc2ccc(Cl)cc2Cl)ccc1[N+](=O)[O-] | 161 to 163
76 | Nc1ccc(-c2ncn(-c3ccc(OC(F)(F)F)cc3)n2)cc1 | 147
77 | CC(CC(Br)CO)C1CCC2C(O)CCCC12C (centres undefined) | 153 to 154
78 | CC(=O)C1=CCC2C3CCC4CC5OC5CC4(C)C3C(=O)CC12C (centres undefined) | 154 to 156
79 | N#Cc1cc(Br)ccc1CBr | 81
80 | Cc1cc2c(nc(C)n2-c2ccc(C#N)cc2)c(C)n1 | 260 to 262
81 | N#Cc1ccc(-c2ccccc2F)c(F)c1 | 78 to 79
82 | COc1ccc(C(O)C(C)N)cc1OC (centres undefined) | 131 to 132
83 | CNC(=S)N1Cc2ccccc2C2(Cc3ccccc3O2)C1 (centres undefined) | 165

Row | SMILES | melting point [°C]
84 | O=C1N[C@@H](Cc2ccccc2)C(c2ccccc2)(c2ccccc2)O1 | 259 to 261
85 | CN(c1ccc(C(C(F)(F)Cl)C(F)(F)Cl)cc1)S(C)(=O)=O | 140 to 142
86 | Cn1ccc(=O)c2cc(F)ccc21 | 88 to 89
87 | Cc1c(C(=O)O)c(=O)c(-c2ccccc2)cn1C | 227 to 228
88 | O=C1CCSC(c2ccccc2Cl)c2cc([N+](=O)[O-])ccc2N1 (centres undefined) | 285
89 | Cc1ccc(C)n1Nc1ccc(N2CCSCC2)nn1 | 203
90 | O=C1CCC(C(=O)Nc2ccccc2C(=O)c2ccccc2)O1 (centres undefined) | 100 to 102
91 | Fc1cc(Br)ccc1OCc1ccccc1 | 64.4 to 66.3
92 | CC(=O)C(=Cc1cccc([N+](=O)[O-])c1)C(=O)CCCCCCCCCCBr | 64 to 67
93 | Cn1c([N+](=O)[O-])cnc1C=NN1CCN(CCN2CCOCC2)C1=O | 173
94 | C(=C1COc2ccc3c4c(nnc1c24)C(=Cc1ccccc1)CO3)c1ccccc1 | 242
95 | CSc1ccc(C=CC(=O)c2cccc([N+](=O)[O-])c2)cc1 | 150
96 | CCCCCCCCCCCCOC(=O)c1ccc(Cl)c(N)c1 | 58.3 to 59.5
97 | O=C(CC1CCCCC1=O)c1ccc(Br)cc1 (centres undefined) | 78 to 80
98 | COc1cccc([C@@]23CCC[C@@H]2CN(C)CC3)c1 (relative stereo) | 40 to 43
99 | CCOC1CC(O)C(=O)N1S(=O)(=O)c1ccccc1 (centres undefined) | 108 to 116
100 | N#CSCC(=O)c1cccc(Br)c1 | 91 to 93
101 | CSC(CC(=O)O)c1ccncc1 (centres undefined) | 187 to 189
102 | Cc1c(CC(F)(F)C(F)(F)C(F)(F)F)c(-c2ccc(S(N)(=O)=O)cc2)c2n1CCC2 | 221
103 | Cc1ccc(N(c2ccc(-c3ccc(-c4ccc(N(c5ccc(C)cc5)c5ccc6c(c5)CCC6)cc4)cc3)cc2)c2ccc3c(c2)CCC3)cc1 | 207 to 208
104 | CC(C)(C)C(=O)Oc1ccccc1-c1nnn[nH]1 | 82 to 85
